Measured values published in patent publication US20250281495A1, “METHODS FOR INHIBITING INFLAMMATION AND PROGRESSION OF ATHEROSCLEROTIC PLAQUES AND CARDIOVASCULAR EVENTS IN PATIENTS WITH CEREBRO- AND CARDIO-VASCULAR DISEASE” (ICAHN SCHOOL OF MEDICINE AT MOUNT SINAI, priority 2021, published 2025).

Tested on: kinase phosphorylation (pCREB, pp38, pMAPKA2P, pS6, pERK1/2) in PBMCs
Experiment: CyTOF screening of candidate small molecules in healthy PBMCs stimulated with atherosclerotic plasma
Format: cell-based, human
Conditions: for reversal of the inflammatory signature activated by atherosclerotic plasma: CyTOF screening
Protocol: To test the efficacy of candidate small molecules in reversing immune response of PBMCs to atherosclerotic plasma, the inventors examined cell type-specific pharmacologic effects of selected candidate compounds. Using healthy PBMCs, the inventors assessed the activity of selected small molecules in the presence of atherosclerotic plasma stimulation that followed 30 minutes of pretreatment with each candidate compounds. Using CyTOF mass-cytometry, the inventors measured the specific inhibition of kinase phosphorylation (i.e., pCREB, pp38, pMAPKA2P, pS6, pERK1/2) in each cell type at the single cell level for each drug (FIGS. 8 and 9).

[1] = CD16+ monocytes and CD1c+ DC, atherosclerotic plasma
[2] = CD14+ and CD16+ monocytes and CD1c+ DC (these cells)
[3] = CD14+ and CD16+ monocytes and CD1c+ DC, atherosclerotic plasma

CC[C@H](C)C(=O)O[C@H]1CCC=C2C=C[C@H](C)[C@H](CC[C@@H]3C[C@@H](O)CC(=O)O3)[C@H]21 [Mevastatin]
p38 phosphorylation (CD1c+ DC, atherosclerotic plasma): inhibited | ERK1/2 phosphorylation [1]: inhibited | reversal of the inflammatory signature activated by atherosclerotic plasma: did not fully reverse | phosphorylation of major kinases (e.g., CREB and S6) implicated in the inflammatory transcriptional reprogramming (atherosclerotic plasma): did not affect

CS(=O)(=O)O.Cn1cc(C2=C(c3cn(CCCSC(=N)N)c4ccccc34)C(=O)NC2=O)c2ccccc21 [Ro 31-8220 mesylate]
ERK1/2 phosphorylation in response to atherosclerosis plasma [2]: not inhibited | p38 phosphorylation in response to atherosclerosis plasma [2]: not inhibited | CREB phosphorylation [3]: significant inhibition | S6 phosphorylation [3]: significant inhibition | MAPKA2P phosphorylation [1]: significant inhibition | reversal of the inflammatory signature activated by atherosclerotic plasma: reversed | inhibition of most specific kinase phosphorylation activated by atherosclerosis plasma (cell-specificity for monocytes and CD1c+ DC, 30 minutes of pretreatment): significant inhibition
